According to patent US12568969B2, “Pyridine compounds for controlling invertebrate pests” (FMC Corporation, priority 2020, dated 2026):

What was measured:
Format in all cases: in vivo
[1] = tested on: corn planthopper (Peregrinus maidis (Ashmead)); experiment: whole plant or invertebrate; settings: Peregrinus maidis, 144 h, 6 days; for mortality at 10 ppm: sprayed at 10 ppm; for mortality at 50 ppm: sprayed at 50 ppm; for mortality at 250 ppm: sprayed at 250 ppm
Protocol: (§1) Test compounds were formulated using a solution containing 10% acetone, […] and 300 ppm Activator 909 non-ionic surfactant (Loveland Products, Loveland, Colorado, USA). The formulated compounds were applied in 1 mL of liquid through an atomizer nozzle positioned 1.27 cm (0.5 inches) above the top of each test unit. Test compounds were sprayed at the rates indicated, and each test was replicated three times.
For evaluating control of corn planthopper (Peregrinus maidis (Ashmead)) through contact and/or systemic means, the test unit consisted of a small open container with a 3-4-day-old corn (maize) plant inside. White sand was added to the top of the soil prior to application of the test compound.
Test compounds were formulated and sprayed at 250 and/or 50 ppm and/or 10 ppm. After spraying of the formulated test compound, the test units were allowed to dry for 1 h before they were post-infested with ˜15-20 nymphs (18-to-21-day-old). A black, screened cap was placed on the top of each test unit, and the test units were held for 6 days in a growth chamber at 22-24° C. and 50-70% relative humidity. Each test unit was then visually assessed for insect mortality.

[2] = tested on: green peach aphid (Myzus persicae (Sulzer)); experiment: Test D: control of green peach aphid on radish plant, spray; settings: Myzus persicae, 144 h, 6 days; for mortality at 250 ppm: sprayed at 250 ppm; for mortality at 50 ppm: sprayed at 50 ppm
Protocol: as §1
For evaluating control of green peach aphid (Myzus persicae (Sulzer)) through contact and/or systemic means, the test unit consisted of a small open container with a 12-15-day-old radish plant inside. This was pre-infested by placing on a leaf of the test plant 30-40 aphids on a piece of leaf excised from a culture plant (cut-leaf method). The aphids moved onto the test plant as the leaf piece desiccated. After pre-infestation, the soil of the test unit was covered with a layer of sand.
[…] After spraying of the formulated test compound, each test unit was allowed to dry for 1 hour and then a black, screened cap was placed on top. The test units were held for 6 days in a growth chamber at 19-21° C. and 50-70% relative humidity. Each test unit was then visually assessed for insect mortality.

[3] = tested on: cotton melon aphid (Aphis gossypii (Glover)); experiment: whole plant or invertebrate; settings: Aphis gossypii, 144 h, 6 days; for mortality at 50 ppm: sprayed at 50 ppm; for mortality at 250 ppm: sprayed at 250 ppm
Protocol: as §1
[…] This was pre-infested with 30-40 insects on a piece of leaf according to the cut-leaf method, and the soil of the test unit was covered with a layer of sand.
Test compounds were formulated and sprayed at 250 and/or 50 ppm. After spraying, the test units were maintained in a growth chamber for 6 days at 19° C. and 70% relative humidity. Each test unit was then visually assessed for insect mortality.

[4] = tested on: sweetpotato whitefly (Bemisia tabaci (Gennadius)); experiment: Test F: control of sweetpotato whitefly on cotton plant, spray; settings: 312 h, 13 days; for mortality at 50 ppm: sprayed at 50 ppm; for mortality at 250 ppm: sprayed at 250 ppm
Protocol: as §1
For evaluating control of the sweetpotato whitefly (Bemisia tabaci (Gennadius)) through contact and/or systemic means, the test unit consisted of a small open container with a 12-14-day-old cotton plant inside. Prior to the spray application, both cotyledons were removed from the plant, leaving one true leaf for the assay. Adult whiteflies were allowed to lay eggs on the plant and then were removed from the test unit. Cotton plants infested with at least 15 eggs were submitted to the test for spraying.
Test compounds were formulated and sprayed at 250 and/or 50 ppm. After spraying, the test units were allowed to dry for 1 hour. The cylinders were then removed, and the units were taken to a growth chamber and held for 13 days at 28° C. and 50-70% relative humidity. Each test unit was then visually assessed for insect mortality.

| Structure (SMILES) | mortality at 10 ppm [1] [%] | mortality at 50 ppm [1] [%] | mortality at 250 ppm [1] [%] | mortality at 250 ppm [2] [%] | mortality at 50 ppm [3] [%] | mortality at 250 ppm [3] [%] | mortality at 50 ppm [2] [%] | mortality at 50 ppm [4] [%] | mortality at 250 ppm [4] [%] |
| --- | --- | --- | --- | --- | --- | --- | --- | --- | --- |
| Cc1cscc1-c1cncc(F)c1C(F)c1ccc(SC(F)(F)F)cc1 (stereo not shown) [Compound 114] | ≥ 80 | ≥ 80 | ≥ 80 |  |  |  |  |  |  |
| Cc1ccn(-c2cncc(F)c2C(F)c2ccc(SC(F)(F)F)cc2)n1 (stereo not shown) [Compound 5] |  | ≥ 80 | ≥ 80 | ≥ 80 |  |  |  |  |  |
| FC(c1ccc(SC(F)(F)F)cc1)c1c(Br)cncc1-n1ccnn1 (stereo not shown) [Compound 87] |  |  |  | ≥ 80 |  |  |  |  |  |
| Fc1cncc(-c2nc[nH]n2)c1C(F)c1ccc(OC(F)(F)F)cc1 (stereo not shown) [Compound 40] |  | ≥ 80 |  |  |  |  |  |  |  |
| Cc1sccc1-c1cncc(F)c1C(F)c1ccc(SC(F)(F)F)cc1 (stereo not shown) [Compound 113] | ≥ 80 | ≥ 80 | ≥ 80 |  | ≥ 80 | ≥ 80 |  |  |  |
| O=S(=O)(c1ccc(C(F)c2c(F)cncc2-n2nccn2)cc1)C(F)(F)F (stereo not shown) [Compound 54] |  |  |  | ≥ 80 | ≥ 80 | ≥ 80 | ≥ 80 |  |  |
| COC(c1ccc(OC(F)(F)F)cc1)c1c(Cl)cncc1-n1nccn1 (stereo not shown) [Compound 16] |  | ≥ 80 | ≥ 80 | ≥ 80 | ≥ 80 | ≥ 80 | ≥ 80 |  |  |
| FC(c1ccc(SC(F)(F)F)cc1)c1c(Cl)cncc1-n1cccn1 (stereo not shown) [Compound 102] |  |  |  |  | ≥ 80 | ≥ 80 |  |  |  |
| COC(c1ccc(SC(F)(F)F)cc1)c1c(F)cncc1-c1ncco1 (stereo not shown) [Compound 76] |  | ≥ 80 | ≥ 80 |  | ≥ 80 | ≥ 80 |  |  |  |
| FC(c1ccc(SC(F)(F)F)cc1)c1c(Cl)cncc1-c1ncno1 (stereo not shown) [Compound 106] | ≥ 80 | ≥ 80 | ≥ 80 |  | ≥ 80 | ≥ 80 |  |  |  |
| [O-][S+](c1ccc(C(F)c2c(F)cncc2-n2cccn2)cc1)C(F)(F)F (stereo not shown) [Compound 73] |  |  |  |  | ≥ 80 | ≥ 80 |  |  |  |
| FC(c1ccc(OC(F)(F)F)cc1)c1ccncc1-n1ccnn1 (stereo not shown) [Compound 10] |  | ≥ 80 | ≥ 80 |  |  |  |  |  |  |
| COC(c1ccc(SC(F)(F)F)cc1)c1c(F)cncc1-c1nccs1 (stereo not shown) [Compound 75] |  |  | ≥ 80 |  |  | ≥ 80 |  |  |  |
| CCn1ccc(-c2cncc(F)c2C(F)c2ccc(OC(F)(F)F)cc2)n1 (stereo not shown) [Compound 57] |  | ≥ 80 |  |  |  | ≥ 80 |  |  |  |
| Fc1cncc(-c2nccs2)c1C(F)c1ccc(SC(F)(F)F)cc1 (stereo not shown) [Compound 77] |  | ≥ 80 | ≥ 80 | ≥ 80 |  | ≥ 80 |  |  |  |
| Fc1cncc(C2OCCCO2)c1C(F)c1ccc(SC(F)(F)F)cc1 (stereo not shown) [Compound 98] | ≥ 80 | ≥ 80 | ≥ 80 |  |  |  |  |  |  |
| COC(c1ccc(SC(F)(F)F)cc1)c1c(F)cncc1-c1ncon1 (stereo not shown) [Compound 83, 3-[5-fluoro-4-[methoxy-[4-(trifluoromethylsulfanyl)phenyl]methyl]-3-pyridyl]-1,2,4-oxadiazole] |  | ≥ 80 | ≥ 80 | ≥ 80 | ≥ 80 | ≥ 80 |  |  |  |
| COC(c1ccc(OC(F)(F)F)cc1)c1c(Br)cncc1-n1nccn1 (stereo not shown) [Compound 65] |  | ≥ 80 |  |  |  |  |  |  |  |
| Fc1cncc(-c2ccsc2)c1C(F)c1ccc(OC(F)(F)F)cc1 (stereo not shown) [Compound 46] | ≥ 80 | ≥ 80 |  |  |  |  |  |  |  |
| Cc1cncc(-n2nccn2)c1C(F)c1ccc(OC(F)(F)F)cc1 (stereo not shown) [Compound 38] | ≥ 80 | ≥ 80 | ≥ 80 | ≥ 80 | ≥ 80 | ≥ 80 |  |  |  |
| Fc1cncc(-c2cccs2)c1C(F)c1ccc(SC(F)(F)F)cc1 (stereo not shown) [Compound 111] | ≥ 80 | ≥ 80 | ≥ 80 |  | ≥ 80 | ≥ 80 |  |  |  |

| Structure (SMILES) | mortality at 10 ppm [1] [%] | mortality at 50 ppm [1] [%] | mortality at 250 ppm [1] [%] | mortality at 250 ppm [2] [%] | mortality at 50 ppm [3] [%] | mortality at 250 ppm [3] [%] | mortality at 50 ppm [2] [%] | mortality at 50 ppm [4] [%] | mortality at 250 ppm [4] [%] |
| --- | --- | --- | --- | --- | --- | --- | --- | --- | --- |
| COC(c1ccc([S+]([O-])C(F)(F)F)cc1)c1c(F)cncc1-n1cccn1 (stereo not shown) [Compound 72] |  |  |  | ≥ 80 |  | ≥ 80 |  |  |  |
| COC(c1ccc(OC(F)(F)F)cc1)c1c(Cl)cncc1-n1cccn1 (stereo not shown) [Compound 52] |  |  |  |  |  | ≥ 80 |  |  |  |
| [O-][S+](c1ccc(C(F)c2c(I)cncc2-n2nccn2)cc1)C(F)(F)F (stereo not shown) [Compound 97] |  |  |  | ≥ 80 | ≥ 80 | ≥ 80 |  |  |  |
| Fc1cncc(-c2cscn2)c1C(F)c1ccc(OC(F)(F)F)cc1 (stereo not shown) [Compound 49] | ≥ 80 | ≥ 80 | ≥ 80 |  |  | ≥ 80 |  |  |  |
| FC(c1ccc(SC(F)(F)F)cc1)c1c(Br)cncc1-n1cccn1 (stereo not shown) [Compound 85] |  | ≥ 80 | ≥ 80 |  | ≥ 80 | ≥ 80 |  |  |  |
| COC(c1ccc(SC(F)(F)F)cc1)c1c(Br)cncc1-n1ccnn1 (stereo not shown) [Compound 134] |  |  |  |  |  |  |  | ≥ 70 | ≥ 70 |
| CC(C)(C)c1ccc(C(F)c2c(Cl)cncc2-n2nccn2)cc1 (stereo not shown) [Compound 110] | ≥ 80 | ≥ 80 | ≥ 80 |  |  |  |  |  |  |
| O=S(=O)(c1ccc(C(F)c2c(Br)cncc2-n2nccn2)cc1)C(F)(F)F (stereo not shown) [Compound 64] |  | ≥ 80 |  |  |  | ≥ 80 |  |  |  |
| COC(c1ccc(OC(F)(F)F)cc1)c1c(F)cncc1-c1ncno1 (stereo not shown) [Compound 138] |  | ≥ 80 | ≥ 80 |  |  |  |  |  |  |
| Fc1cncc(C2OCCO2)c1C(F)c1ccc(SC(F)(F)F)cc1 (stereo not shown) [Compound 96] | ≥ 80 | ≥ 80 | ≥ 80 | ≥ 80 | ≥ 80 | ≥ 80 |  |  |  |
| Fc1cncc(-n2cncn2)c1C(F)c1ccc(SC(F)(F)F)cc1 (stereo not shown) [Compound 2] |  | ≥ 80 | ≥ 80 | ≥ 80 |  | ≥ 80 | ≥ 80 |  |  |
| COC(c1ccc(SC(F)(F)F)cc1)c1c(F)cncc1-n1cccn1 (stereo not shown) [Compound 70] | ≥ 80 | ≥ 80 | ≥ 80 | ≥ 80 | ≥ 80 | ≥ 80 |  |  |  |
| Fc1cncc(-c2ccc[nH]2)c1C(F)c1ccc(OC(F)(F)F)cc1 (stereo not shown) [Compound 26] |  | ≥ 80 | ≥ 80 |  |  |  |  |  |  |
| FC(c1ccc(SC(F)(F)F)cc1)c1c(Br)cncc1-n1nccn1 (stereo not shown) [Compound 86] |  | ≥ 80 | ≥ 80 | ≥ 80 | ≥ 80 | ≥ 80 | ≥ 80 |  |  |
| COC(c1ccc(C(C)(C)C)cc1)c1c(F)cncc1-c1ncno1 (stereo not shown) [Compound 139] |  | ≥ 80 | ≥ 80 |  |  |  |  |  |  |
| FC(c1ccc(SC(F)(F)F)cc1)c1ccncc1-n1ccnn1 (stereo not shown) [Compound 68] |  |  |  | ≥ 80 | ≥ 80 | ≥ 80 |  |  |  |
| Cc1cnn(-c2cncc(F)c2C(F)c2ccc(SC(F)(F)F)cc2)c1 (stereo not shown) [Compound 6] |  | ≥ 80 | ≥ 80 |  |  |  |  |  |  |
| COC(c1ccc(SC(F)(F)F)cc1)c1c(F)cncc1-c1cc(C)no1 (stereo not shown) [Compound 82] |  |  | ≥ 80 |  |  |  |  |  |  |
| COC(c1ccc([S+]([O-])C(F)(F)F)cc1)c1c(F)cncc1-n1cncn1 (stereo not shown) [Compound 74] |  |  |  | ≥ 80 | ≥ 80 | ≥ 80 | ≥ 80 |  |  |
| COC(c1ccc(Br)cc1)c1c(F)cncc1-n1nccn1 (stereo not shown) [Compound 117] |  |  |  |  |  |  |  | ≥ 70 | ≥ 70 |
